# Tests used:
# [1] = Iontophoretic transport across human stratum corneum, three-chamber continuous flow-through diffusion cells; type: in vitro ADME; conditions: for iontophoretic flux (averages±s.e.m.): 4 g/l NaCl, citrate buffer pH 5.5, 0.5 mA/cm^2; for mean transport during the iontophoretic period: citrate buffer pH 5.5, 0.5 mA/cm^2, no NaCl added; for mean transport during the iontophoretic period (averages±s.e.m.): drug 35 mg/ml, pH 5.5, 0.5 mA/cm^2
# Procedure: Human Stratum Corneum (HSC) was prepared from dermatomed healthy human skin. Within 24 hours after surgical removal of the human skin (abdominal or breast), residual subcutaneous fat was removed. To avoid interference with contaminating subcutaneous fat, the skin surface was carefully wiped with a tissue paper soaked in 70% ethanol. The skin was dermatomed to a thickness of about 300 μm using a Padgett Electro Dermatome Model B (Kansas City, USA). It was then incubated with the dermal side on Whatman paper soaked in a solution of 0.1% trypsin in PBS overnight at 4° C. and subsequently for 1 hour at 37° C. Then HSC was peeled off from the underlying epidermis and dermis. Remaining trypsin activity was blocked by bathing HSC in a 0.1% trypsin inhibitor solution in PBS, pH 7.4. HSC was washed several times in water and stored in a silica gel containing desiccator in a N2 environment to inhibit oxidation of lipids.
# (§1) 7-(4-methyl-1-piperazinyl)-2(3H)-benzoxazolone as a HCl salt was dissolved in 10 mM sodium citrate solution. The pH was adjusted to pH 5.5 with 10 mM citric acid. 7-(4-benzyl-1-piperazinyl)-2(3H)-benzoxazolone as a mesylate salt was dissolved in 0.1 M potassium phosphate buffer. The pH was adjusted to pH 4.0 using o-phosphoric acid.
# Iontophoresis experiments with 7-(4-methyl-1-piperazinyl)-2(3H)-benzoxazolone were performed using 9-channel computer controlled power supply to provide constant current (Electronics Department, Gorlaeus Laboratories, Leiden University, The Netherlands.) Alternatively the commercial available Power Supply PCT-MK1 of Moor Instruments, UK can be used. A silver plate electrode was used as an anode (e.g. Silver foil >99.99% pure, 1.0 mm thick (Aldrich article nr. 36,943-8), 5 cm long, 3 mm wide) and a silver/silver chloride electrode (prepared by repeatedly (2 or 3 times) dipping silver wire (>99.99% pure, Ø 1.0 mm (Aldrich art. Nr. 26,559-4), bended at the tip to produce a small projection (approx. 3 mm) at a right angle to the vertical electrode shaft in melted silver chloride powder (>99.999% pure, Aldrich art. Nr. 20,438-2) as a cathode. (Alternatively, the silver plate and silver/silver chloride electrodes can be prepared according to chapter 3.4.3. of Ajay K. Banga, Electrically Assisted Transdermal and Topical Drug Delivery, Taylor and Francis Group Ltd., London UK, 1998, ISBN 0-7484-0687-5. or can be purchased from a commercial supplier such as Iomed.)
# All diffusion experiments were carried out at a constant current density of 0.5 mA/cm^2, using three chambers continuous flow through diffusion cells at room temperature. The diffusion set up consisted of a peristaltic pump, a fraction collector and 8 diffusion cells (for diffusion cell see FIG. 4). Stratum corneum was used for all diffusion studies. Human stratum corneum was hydrated for two hours in PBS pH 7.4 prior to mounting in the cells. Two pieces of stratum corneum were placed between the anodal and acceptor side, and between acceptor and cathodal side, with the apical side facing the anodal and cathodal compartments. Dialysis membrane (cut off 5,000 D) was used as supporting membrane for the stratum corneum. Parafilm rings were added for making a tight connection between the compartments. The temperature of the acceptor chamber was 37° C. The flow of PBS through the acceptor chamber was kept approximately constant for each cell during the experiment: 6-8 ml per hour. After six hours of passive diffusion, the current was switched on. The current was switched off at t=15 h. During a period of another 5 hours (post iontophoretic period) passive diffusion post iontophoresis was carried out. During iontophoresis, the current density was 0.5 mA/cm^2. The total resistance of the stratum corneum sheets was monitored during the experiment with two additional silver electrodes. A very low resistance is indicative of leakage of the stratum corneum in a cell. When this was observed, the diffusion data obtained were discarded. […]
# [2] = HPLC-UV analysis of sample solutions for oxidation or degradation products; type: physicochemical; conditions: HPLC with UV detection, 215 nm
# Procedure: 7-(4-methyl-1-piperazinyl)-2(3H)-benzoxazolone was analyzed using HPLC with UV detection (Waters Chromatography, Etten Leur, The Netherlands). A Chromsep SS column was used (250*3 mm L*i.d.) thermostatted at 30° C. The mobile phase consisted of acetonitrile/methanol/0.7 g/l ammonium acetate buffer at pH 5.6 ([…] v/v) and was used at 0.5 ml/min. The detection wavelength was 215 nm.
# [3] = Solubility in donor buffer
# [4] = Iontophoretic transport across hairless rat skin, vertical Franz diffusion cells; type: in vitro ADME; conditions: 30 mM NaCl; for change of iontophoretic flux with active substance concentration (FIG. 4): phosphate buffer pH 4.0
# Text: Hairless rats were euthanized by inhalation of carbon dioxide using an exposure chamber designed for such use half hour before start of experiment. The skin from the abdomen was carefully removed, making sure no muscle or fat was attached to the skin. The skin was then cut into small squares to fit the Franz diffusion set (Membrane Transport System, PermeGear, U.S.A) and placed in 0.1 M potassium phosphate buffer until mounted.
# as §1
# Iontophoresis experiments with 7-(4-benzyl-1-piperazinyl)-2(3H)-benzoxazolone were performed using vertical Franz diffusion cells (Membrane Transport System, PermeGear, U.S.A) hooked up to a Keithley 2400 source meter and the current monitored using a multimeter. The donor half was of the cell was exposed to room temperature (25° C.) while the receptor half was maintained at 37° C. Receptor compartment was continuously stirred. Freshly excised hairless rat skin was mounted on the vertical diffusion cells, after the receptor compartment had been filled with a suitable receptor media, which can maintain the sink condition. The receptor media had the same composition as the donor solution without the drug, so that the sink conditions could be maintained. The formulation was placed in the donor compartment. A silver wire was used as the anode in the donor and a silver/silver chloride wire was used as the cathode in the receptor. Current was applied for 3 hours using a constant current power source. However, sampling was continued till 24 hrs to see if enhanced delivery will stop on terminating current. Samples were taken at pre-determined time intervals from the receptor and analyzed by the HPLC as described below. Samples were replaced with fresh receptor medium and this was taken into consideration in the calculations.
# 7-(4-benzyl-1-piperazinyl)-2(3H)-benzoxazolone was analyzed using HPLC with UV detection (Waters Alliance system). A Chromsep SS column was used (150*3 mm L*i.d.) with particle size of 5 μm thermostatted at 40° C. The mobile phase was made using 1.54 g ammonium acetate in 460 ml of water (pH adjusted to 4.6 using acetic acid) and 540 ml of methanol and degassed. The flow rate was 0.5 ml/min. The detection wavelength was 243 nm. Injection volume was 10 μl.
"permeation with iontophoresis as compared to passive delivery (FIG. 5) ([4]; current densities 0, 0.1, 0.3 and 0.5 mA)",change of iontophoretic flux with active substance concentration (FIG. 4) ([4]; further increase to 10 mg/ml),change of iontophoretic flux with active substance concentration (FIG. 4) ([4]; increase from 1 mg/ml to 5 mg/ml),SMILES,iontophoretic flux (averages±s.e.m.) ([1]; donor concentration 20 mg/ml) [μg/hr/cm^2],mean transport during the iontophoretic period ([1]; donor concentration 20 mg/ml) [μg/hr/cm^2],iontophoretic flux (averages±s.e.m.) ([1]; donor concentration 35 mg/ml) [μg/hr/cm^2],mean transport during the iontophoretic period ([1]; donor concentration 35 mg/ml) [μg/hr/cm^2],iontophoretic flux (averages±s.e.m.) ([1]; donor concentration 55 mg/ml) [μg/hr/cm^2],mean transport during the iontophoretic period ([1]; donor concentration 55 mg/ml) [μg/hr/cm^2],mean transport during the iontophoretic period ([1]; donor concentration 75 mg/ml) [μg/hr/cm^2],mean transport during the iontophoretic period (averages±s.e.m.) ([1]; sodium chloride 0 mg/ml) [μg/hr/cm^2],mean transport during the iontophoretic period (averages±s.e.m.) ([1]; sodium chloride 2 mg/ml) [μg/hr/cm^2],mean transport during the iontophoretic period (averages±s.e.m.) ([1]; sodium chloride 4 mg/ml) [μg/hr/cm^2],oxidation or degradation products in chromatograms of the sample solutions [2],"share of the maximum solubility that a 35 mg/ml solution represents ([3]; 35 mg/ml, 10 mM citrate pH 5.5, 4 mg/ml NaCl) [%]",share of the maximum solubility that a 55 mg/ml solution represents ([3]; 55 mg/ml in citrate buffer at pH 5.5 in the presence of 4 g/l NaCl) [%],share of the maximum solubility that a 75 mg/ml solution represents ([3]; 75 mg/ml in citrate buffer at pH 5.5) [%],"dependence of solubility on NaCl concentration ([3]; citrate pH 5.5, NaCl 0-4 mg/ml)","relationship between flux and current density (FIG. 5) ([4]; 5 g/ml solution, current densities 0, 0.1, 0.3 and 0.5 mA)"
,,,CN1CCN(c2cccc3[nH]c(=O)oc23)CC1.Cl [7-(4-methyl-1-piperazinyl)-2(3H)-benzoxazolone monohydrochloride],409±47,394±26,467±74,383±42,580±87,459±59,418±31,471±65,377±37,424±50,No oxidation or degradation products of the compound were observed,80,85,85,increases with reducing NaCl concentration,
considerably enhances the permeation,no increase in iontophoretic flux,increase in iontophoretic flux,CS(=O)(=O)O.O=c1[nH]c2cccc(N3CCN(Cc4ccccc4)CC3)c2o1 [7-(4-benzyl-1-piperazinyl)-2(3H)-benzoxazolone mesylate],,,,,,,,,,,,,,,,linear relationship between flux and current density
